The assay deals with T1, NLRP3 inflammasome (Homo sapiens, UniProt Q96P20).
T1 construct: freshly isolated from human peripheral blood from healthy donors; StemCells Technologies; host or cells: primary human PBMCs
In words: NLRP3 inflammasome activation assay in LPS-primed, nigericin-stimulated PBMCs, IL-1β release. Format: cell-based. The note with it: 10 μM nigericin. As to the method:
Some of the following assays were used to determine the inhibitory activity of the compounds on the NLRP3 inflammasome using a common inflammasome activation stimuli-nigericin.
Human peripheral blood mononuclear cells (PBMCs), consisting of lymphocytes (T, B and NK cells), monocytes and dendritic cells, are freshly isolated from human peripheral blood from healthy donors. Cells are obtained through an IRB approved donor program by iXCells Biotechnologies where all the donors are tested for bacterial and viral infections. Cells are purified from peripheral blood using ficoll gradient centrifugation.
Fresh or cryopreserved PMBCs are seeded in V-bottom 96-well plate at 0.5-1×10^5 cells per well and incubated overnight at 37° C. with 5% CO2 in RPMI 1640 medium with GlutaMAX supplement, 4.5 g/L D-glucose, 10% Fetal Bovine Serum (FBS), […] Sodium Pyruvate, 1% Penicillin/Streptomycin, 10 mM HEPES and 0.05 mM of […]. Freshly isolated or cryopreserved KCs cells are seeded in flat-bottom 96-well plates at 0.6-1.5×10^5 cells/well and incubated overnight at 37° C., 5% CO2 in RPMI 1640 Medium with GlutaMAX supplement, FBS, 1% Penicillin/Streptomycin and 10 mM HEPES. The following day, the cells are primed with 100 ng/mL of lipopolysaccharides (LPS; Sigma Aldrich) in FBS-free RPMI 1640 for 3 h. After the priming step, the media is removed and PBMCs are pre-incubated with serial concentrations of test compounds (0.00017-10 uM) or vehicle (DMSO) for 30 min in FBS-free media prior to addition of the NLRP3 activator. Cells are then stimulated with 10 μM Nigericin (Sigma Aldrich; InvivoGen) for 1.5 h. Plates were centrifuged at 1,500 rpm for 3 minutes to pellet cells and supernatant was transferred into new plates for subsequent experiments.
For ELISA assays cells are seeded into 96-well plates. Post study, supernatants are removed and the levels of mature IL-1β, IL18 and TNFα (Quantikine ELISA, R&D systems) are measured in cell conditioned media by ELISA according to manufacturer's instructions.
Human frozen PBMCs were purchased from StemCells Technologies. Cells were rapidly thawed in 37° C. water bath and resuspended in fresh assay media consisting of RPMI 1640 Medium containing 1% sodium pyruvate, 10 mM HEPES, 2.5 g/L glucose and 55 μM 2-Mercaptoethanol. Cell density was adjusted to 8.1×10^5 cells/mL. Cells were primed by adding lipopolysaccharide (Invivogen Ultrapure lipopolysaccharide from E. coli, tlrl-3pelps) at a final concentration of 100 ng/mL in cell suspension. 37 μL of cell suspension with LPS was seeded per well of a 384 well plate and incubated for 3 hours at 37° C. and 5% CO2. After priming, PBMCs were preincubated with serially diluted test compounds with starting concentration of 40 μM followed by 2-fold dilution for a 20-point curve or vehicle (DMSO) for 30 min in assay media at 37° C. and 5% CO2. Cells were then stimulated with 10 μM nigericin (Invivogen, tlrl-nig-5) for 90 min at 37° C. and 5% CO2 to activate NLRP3 dependent inflammasome pathway and IL-1β release in cell culture supernatant. Cells were centrifuged at 1200 RPM for 1 min and 40 μL of supernatant was transferred into fresh plates and stored at −80° C. until IL-1β analysis.
16 μL of supernatant was added to white 384 well HTRF plates, followed by addition of 4 μL of HTRF cocktail in each well. Plates were quickly centrifuged, sealed and incubated overnight at room temperature. Next day, HTRF signal was read on a Pherastar and ratio of 665/620 was calculated based on manufacturer's protocol to obtain concentration of IL-1β in cell culture supernatant.

Setting [1] is: LPS 100 ng/mL priming, read-out: IL-1B pIC50 (converted).
[2] abbreviates: PBMC, LPS priming, read-out: PMBC IL-1β IC50.
The mark [3] stands for this setting: IL-1B pIC50 (μM), LPS 100 ng/mL priming.

Read-outs that look alike come from different tables or passages of the source.

T1 sequence (Q96P20 whole entry): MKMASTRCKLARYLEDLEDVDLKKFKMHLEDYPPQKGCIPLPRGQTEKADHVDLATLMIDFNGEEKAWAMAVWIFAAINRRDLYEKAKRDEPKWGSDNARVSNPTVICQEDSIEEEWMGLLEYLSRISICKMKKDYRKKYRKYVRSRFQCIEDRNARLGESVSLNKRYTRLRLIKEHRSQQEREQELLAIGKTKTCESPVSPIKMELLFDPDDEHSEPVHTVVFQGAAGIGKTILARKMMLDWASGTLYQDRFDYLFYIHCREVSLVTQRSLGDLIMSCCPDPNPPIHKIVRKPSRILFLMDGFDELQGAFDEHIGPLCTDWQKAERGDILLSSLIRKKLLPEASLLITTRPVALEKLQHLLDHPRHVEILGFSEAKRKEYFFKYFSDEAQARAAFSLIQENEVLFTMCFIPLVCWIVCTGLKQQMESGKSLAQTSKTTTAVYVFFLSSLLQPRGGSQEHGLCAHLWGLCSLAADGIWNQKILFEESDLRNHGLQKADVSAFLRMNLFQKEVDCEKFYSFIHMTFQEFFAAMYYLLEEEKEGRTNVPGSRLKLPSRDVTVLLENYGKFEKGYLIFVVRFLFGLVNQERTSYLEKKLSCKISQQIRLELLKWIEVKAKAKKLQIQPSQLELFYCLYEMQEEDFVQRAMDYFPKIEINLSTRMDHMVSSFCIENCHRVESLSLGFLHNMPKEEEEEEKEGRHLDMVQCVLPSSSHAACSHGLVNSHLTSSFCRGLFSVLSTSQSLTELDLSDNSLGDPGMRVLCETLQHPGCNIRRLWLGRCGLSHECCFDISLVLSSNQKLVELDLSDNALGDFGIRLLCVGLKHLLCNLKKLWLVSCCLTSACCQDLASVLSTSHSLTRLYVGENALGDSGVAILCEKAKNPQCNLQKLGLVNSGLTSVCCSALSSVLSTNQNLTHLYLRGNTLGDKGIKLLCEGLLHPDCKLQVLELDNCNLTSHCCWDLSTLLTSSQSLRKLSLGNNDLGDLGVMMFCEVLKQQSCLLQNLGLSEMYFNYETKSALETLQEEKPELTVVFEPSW

Regarding `CC(C)(C)c1cc(NC(=O)NS(=O)(=O)c2cnn3c2OCCC3)n(C(C)(C)C)n1` [drawing 403], the IC50 under setting [1] is over 10 µM.
Take `CC1CCCC(C)N1NC(=O)NS(=O)(=O)c1cnn2c1OCCC2` (mixture of isomers) [Example 7, N-((2,6-dimethylpiperidin-1-yl)carbamoyl)-6,7-dihydro-5H-pyrazolo[5,1-b][1,3]oxazine-3-sulfonamide]: under setting [2], the IC50 was over 10 µM.
Take `O=C(NC1c2ccccc2-c2ccccc21)NS(=O)(=O)c1cnn2c1OCCC2` [drawing 370]: the IC50 under setting [1] was over 10 µM.
With `O=C(NC1c2ccccc2CC12CCOCC2)NS(=O)(=O)c1cnn2c1OCCC2` (stereo not shown) [Example 2, N-((1,2′,3,3′,5′,6′-hexahydrospiro[indene-2,4′-pyran]-1-yl)carbamoyl)-6,7-dihydro-5H-pyrazolo[5,1-b][1,3]oxazine-3-sulfonamide], under setting [2], the IC50 is over 10 µM.
For the molecule `Cc1cc(C)nc(NC(=O)NS(=O)(=O)c2cnn3c2OCCC3)n1` [drawing 390], under setting [1], the IC50 was over 10 µM.
As to `Cc1cc(NC(=O)NS(=O)(=O)c2cnn3c2OCCC3)n(C(C)C)n1` [drawing 410], the IC50 under setting [1] is over 10 µM.
As for `O=C(NC1CCOc2ccccc21)NS(=O)(=O)c1cnn2c1OCCC2` (racemic) [Example 9, N-(chroman-4-ylcarbamoyl)-6,7-dihydro-5H-pyrazolo[5,1-b][1,3]oxazine-3-sulfonamide], under setting [2], the IC50 is over 10 µM.
Turning to `O=C(NC1(c2ccccc2)CCCCCC1)NS(=O)(=O)c1cnn2c1OCCC2` [drawing 377], the IC50 under setting [1] is over 10 µM.
On to `CC1(C)CCc2ccccc2C1NC(=O)NS(=O)(=O)c1cnn2c1OCCC2` (stereo not shown) [Example 1, N-((2,2-dimethyl-1,2,3,4-tetrahydronaphthalen-1-yl)carbamoyl)-6,7-dihydro-5H-pyrazolo[5,1-b][1,3]oxazine-3-sulfonamide], for which the IC50 under setting [2] is over 10 µM.
With `Cc1nc(NC(=O)NS(=O)(=O)c2cnn3c2OCCC3)nc2c1CCCC2` [drawing 389], the IC50 under setting [1] is over 10 µM.
`COc1cc(OC)nc(NC(=O)NS(=O)(=O)c2cnn3c2OCCC3)n1` [drawing 383] came in with an IC50 under setting [3] of over 10 µM.
`CC(C)(C)c1cc(NC(=O)NS(=O)(=O)c2cnn3c2OCCC3)n(C(C)(C)C)n1` [Example 36, N-((1,3-di-tert-butyl-1H-pyrazol-5-yl)carbamoyl)-6,7-dihydro-5H-pyrazolo[5,1-b][1,3]oxazine-3-sulfonamide, ammonia]: the IC50 under setting [2] was over 10 µM.
On to `O=C(NN1CCCCCC1)NS(=O)(=O)c1cnn2c1OCCC2` [Example 14, N-(azepan-1-ylcarbamoyl)-6,7-dihydro-5H-pyrazolo[5,1-b][1,3]oxazine-3-sulfonamide], for which the IC50 under setting [2] was over 10 µM.
For `O=C(Nc1c2c(n3c1CCC3)CCCC2=O)NS(=O)(=O)c1cnn2c1OCCC2` [drawing 395], under setting [1], the IC50 is over 10 µM.
Consider `CC(C)c1cc(Cl)nc(NC(=O)NS(=O)(=O)c2cnn3c2OCCC3)n1` [drawing 381], for which, under setting [1], the IC50 is over 10 µM.
As for `O=C(Nc1c2c(n3c1CCC3)CCCC2=O)NS(=O)(=O)c1cnn2c1OCCC2` [Example 29, N-((8-oxo-2,3,5,6,7,8-hexahydro-1H-pyrrolo[1,2-a]indol-9-yl)carbamoyl)-6,7-dihydro-5H-pyrazolo[5,1-b][1,3]oxazine-3-sulfonamide], the IC50 under setting [2] was over 10 µM.
On to `O=C(NC(c1ccccc1)c1ccccc1)NS(=O)(=O)c1cnn2c1OCCC2` [Example 15, N-(benzhydrylcarbamoyl)-6,7-dihydro-5H-pyrazolo[5,1-b][1,3]oxazine-3-sulfonamide], for which the IC50 under setting [2] is over 10 µM.
Consider `CC(C)(C)c1cc(C(C)(C)C)nc(NC(=O)NS(=O)(=O)c2cnn3c2OCCC3)n1` [drawing 387], for which the IC50 under setting [1] is over 10 µM.
In the case of `O=C(NN1CCCCCC1)NS(=O)(=O)c1cnn2c1OCCC2` [drawing 379], the IC50 under setting [1] was over 10 µM.
In turn, `COc1cc(C)nc(NC(=O)NS(=O)(=O)c2cnn3c2OCCC3)n1` [drawing 384] came in with an IC50 under setting [3] of over 10 µM.
Take `CC(C)c1nn(C)c(C(C)C)c1NC(=O)NS(=O)(=O)c1cnn2c1OCCC2` [Example 26, N-((3,5-diisopropyl-1-methyl-1H-pyrazol-4-yl)carbamoyl)-6,7-dihydro-5H-pyrazolo[5,1-b][1,3]oxazine-3-sulfonamide]: the IC50 under setting [2] is over 10 µM.
For the molecule `CC(C)c1nn(C)c(C(C)C)c1NC(=O)NS(=O)(=O)c1cnn2c1OCCC2` [drawing 391], the IC50 under setting [1] was 1 to 10 µM.
On to `Cc1cc(C2CC2)nc(NC(=O)NS(=O)(=O)c2cnn3c2OCCC3)n1` [drawing 386], for which, under setting [1], the IC50 was over 10 µM.
Consider `Cc1ccc(Br)c(NC(=O)NS(=O)(=O)c2cnn3c2OCCC3)n1` [Example 20, N-((3-bromo-6-methylpyridin-2-yl)carbamoyl)-6,7-dihydro-5H-pyrazolo[5,1-b][1,3]oxazine-3-sulfonamide], for which, under setting [2], the IC50 is over 10 µM.
Regarding `CC1CCCC(C)N1NC(=O)NS(=O)(=O)c1cnn2c1OCCC2` (stereo not shown), the IC50 under setting [1] is over 10 µM.
The same measure, in the same setting: under `O=C(NN1CCOc2ccccc21)NS(=O)(=O)c1cnn2c1OCCC2` stands over 10 µM; under `O=C(NN1CC2CCCC2C1)NS(=O)(=O)c1cnn2c1OCCC2` (stereo not shown), over 10 µM.
With `CC1Cc2ccccc2C1NC(=O)NS(=O)(=O)c1cnn2c1OCCC2` (stereo not shown) [drawing 371], the IC50 under setting [1] is over 10 µM.
On the same count and under the same terms, under `C=C(C)c1cncc(C(=C)C)c1NC(=O)NS(=O)(=O)c1cnn2c1OCCC2` [drawing 392] stands over 10 µM; under `O=C(NC1c2ccccc2CC12CCOCC2)NS(=O)(=O)c1cnn2c1OCCC2` (stereo not shown) [drawing 367], over 10 µM.
Same read-out and setting: the same measure for `O=C(Nc1nc(-c2ccccc2)cc2c1CCC2)NS(=O)(=O)c1cnn2c1OCCC2` [drawing 388]: over 10 µM.
Consider `CC1Cc2ccccc2C1NC(=O)NS(=O)(=O)c1cnn2c1OCCC2` (stereo not shown) [Example 6, N-((2-methyl-2,3-dihydro-1H-inden-1-yl)carbamoyl)-6,7-dihydro-5H-pyrazolo[5,1-b][1,3]oxazine-3-sulfonamide], for which, under setting [2], the IC50 was over 10 µM.
For `O=C(NN1CC2CCCC2C1)NS(=O)(=O)c1cnn2c1OCCC2` (single isomer, unassigned) [Example 13a, N-((hexahydrocyclopenta[c]pyrrol-2(1H)-yl)carbamoyl)-6,7-dihydro-5H-pyrazolo[5,1-b][1,3]oxazine-3-sulfonamide], the IC50 under setting [2] was over 10 µM.
The same measure, in the same setting: under `Cc1cc(NC(=O)NS(=O)(=O)c2cnn3c2OCCC3)n(C(C)C)n1` [Example 43, N-((1-isopropyl-3-methyl-1H-pyrazol-5-yl)carbamoyl)-6,7-dihydro-5H-pyrazolo[5,1-b][1,3]oxazine-3-sulfonamide] stands over 10 µM.
As to `Cc1ccc(Br)c(NC(=O)NS(=O)(=O)c2cnn3c2OCCC3)n1` [drawing 385], the IC50 under setting [1] is over 10 µM.
Regarding `O=C(NC1c2ccccc2-c2ccccc21)NS(=O)(=O)c1cnn2c1OCCC2` [Example 5, N-((9H-fluoren-9-yl)carbamoyl)-6,7-dihydro-5H-pyrazolo[5,1-b][1,3]oxazine-3-sulfonamide], the IC50 under setting [2] was over 10 µM.
For the molecule `CC1(C)COc2c(S(=O)(=O)NC(=O)NC3CCCCc4ccccc43)cnn2C1` (stereo not shown) [drawing 413], the IC50 under setting [1] was over 10 µM.
The same measure, in the same setting: the same measure for `O=C(NC(c1ccccc1)c1ccccc1)NS(=O)(=O)c1cnn2c1OCCC2` [drawing 380]: over 10 µM.
Turning to `CC1(C)COc2c(S(=O)(=O)NC(=O)NC3CCCCc4ccccc43)cnn2C1` (stereo not shown) [Example 46, 6,6-dimethyl-N-((6,7,8,9-tetrahydro-5H-benzo[7]annulen-5-yl)carbamoyl)-6,7-dihydro-5H-pyrazolo[5,1-b][1,3]oxazine-3-sulfonamide], under setting [2], the IC50 was over 10 µM.
On to `O=C(Nc1nc(-c2ccccc2)cc(C(F)(F)F)n1)NS(=O)(=O)c1cnn2c1OCCC2` [drawing 382], for which the IC50 under setting [1] is over 10 µM.

The values are drawn from US11560391B2, “Sulfonylurea compounds as inhibitors of interleukin-1 activity” (Genentech, Inc., priority 2018, dated 2023).
